Reference: the NIST ThermoML archive (doi:10.1016/j.tca.2016.09.007)
± gives the expanded uncertainty stated by the source.

Conditions: Crystal; DTA

Normal melting temperature: 38.00 ± 1 °C
Structure (SMILES): O=C1OCCO1 [ethylene carbonate]
